Source: BindingDB's records for doi:10.1016/j.bmcl.2009.11.060 (Glaxosmithkline, 2010)

Assay: Inhibition of GSK3-beta phosphorylation in human BT474 cells

Row | IC50 | SMILES
1 | 260 nM | Cc1n[nH]c2ncc(-c3cc(OC[C@@H](N)Cc4c[nH]c5ccccc45)cnc3-c3ccoc3)cc12 [(S)-1-(6-(furan-3-yl)-5-(3-methyl-1H-pyrazolo[3,4-b]pyridin-5-yl)pyridin-3-yloxy)-3-(1H-indol-3-yl)propan-2-amine]
2 | 64 nM | Cc1n[nH]c2cnc(-c3cc(OC[C@@H](N)Cc4c[nH]c5ccccc45)cnc3-c3ccoc3)cc12 [(S)-1-(6-(furan-3-yl)-5-(3-methyl-1H-pyrazolo[3,4-c]pyridin-5-yl)pyridin-3-yloxy)-3-(1H-indol-3-yl)propan-2-amine]
3 | 160 nM | Cc1n[nH]c2ncc(-c3cc(OC[C@@H](N)Cc4c[nH]c5ccccc45)cnc3-c3ccoc3)nc12 [(S)-1-(6-(furan-3-yl)-5-(3-methyl-1H-pyrazolo[4,3-b]pyrazin-5-yl)pyridin-3-yloxy)-3-(1H-indol-3-yl)propan-2-amine]
4 | 3860 nM | Cc1n[nH]c2ccc(-c3cc(OC[C@@H](N)Cc4c[nH]c5ccccc45)cnc3-c3ccoc3)nc12 [(S)-1-(6-(furan-3-yl)-5-(3-methyl-1H-pyrazolo[4,3-b]pyridin-5-yl)pyridin-3-yloxy)-3-(1H-indol-3-yl)propan-2-amine]
